# Activity calls are given as the source filed them. The rule behind the calls is not given here.
# What was measured:
# HCT-116 [1] = assay: Induction of apoptosis in human HCT-116 cells assessed as viable cells at 2.5 uM incubated for 48 hrs by Annexin V-PE and propidium iodide staining based flow cytometry analysis (reference value: 97.8%); type: functional; conditions: read-out: Activity
# HCT-116 [2] = assay: Induction of apoptosis in human HCT-116 cells assessed as necrotic cells at 2.5 uM incubated for 48 hrs by Annexin V-PE and propidium iodide staining based flow cytometry analysis (reference value: 1.3%); type: functional
# [3] = Toxicity in BALB/c nude mouse assessed as adverse effect at 5 to 10 mg/kg, ip administered every 2 days; type: organism-based; conditions: in vivo, 48 h, dose 5-10 mg/kg
# RKO [4] = assay: Induction of apoptosis in human RKO cells assessed as late apoptotic cells at 10 uM incubated for 48 hrs by Annexin V-PE and propidium iodide staining based flow cytometry analysis (reference value: 0.3%); type: functional
# [5] = Toxicity in BALB/c nude mouse assessed as changes in body weight at 5 to 10 mg/kg, ip administered every 2 days; type: organism-based; conditions: in vivo, 48 h, dose 5-10 mg/kg
# HCT-116 [6] = assay: Inhibition of cell migration in human HCT-116 cells at 2.5 to 10 uM measured upto 48 hrs by scratch wound healing assay; type: functional, cell-based; conditions: dose 2.5-10 µM
# RKO [7] = assay: Induction of cell cycle arrest in human RKO cells assessed as downregulation of CDK4 expression at 2.5 to 10 uM incubated for 48 hrs by Western blotting analysis; type: functional, cell-based; conditions: dose 2.5-10 µM
# HCT-116 [8] = assay: Effect on CDK2 expression in human HCT-116 cells at 2.5 to 10 uM incubated for 48 hrs by Western blotting analysis; type: functional, cell-based; conditions: dose 2.5-10 µM
# [9] = Acute toxicity in BALB/c mouse assessed as heart lesion at 50 to 100 mg/kg, ip measured every 2 days by H and E staining based assay; type: organism-based; conditions: in vivo, 48 h, dose 50-100 mg/kg
# RKO [10] = assay: Induction of apoptosis in human RKO cells assessed as early apoptotic cells at 2.5 uM incubated for 48 hrs by Annexin V-PE and propidium iodide staining based flow cytometry analysis (reference value: 0.2%); type: functional
# [11] = Cytotoxicity against human NCM460 cells incubated for 72 hrs by MTS assay; type: toxicity, cell-based
# HCT-116 [12] = assay: Induction of cell cycle arrest in human HCT-116 cells assessed as downregulation of p-Rb expression at 2.5 to 10 uM incubated for 48 hrs by Western blotting analysis; type: functional, cell-based; conditions: dose 2.5-10 µM
# RKO [13] = assay: Induction of apoptosis in human RKO cells assessed as necrotic cells at 5 uM incubated for 48 hrs by Annexin V-PE and propidium iodide staining based flow cytometry analysis (reference value: 0.3%); type: functional
# RKO [14] = assay: Induction of apoptosis in human RKO cells assessed as necrotic cells at 2.5 uM incubated for 48 hrs by Annexin V-PE and propidium iodide staining based flow cytometry analysis (reference value: 0.3%); type: functional
# RKO [15] = assay: Inhibition of colony formation in human RKO cells at 4 uM incubated for 10 days with every 3 days of media replacement by crystal violet staining based assay; type: functional; conditions: 240 h, time 10 day
# HCT-116 [16] = assay: Antitumor activity against human HCT-116 cells xenografted in BALB/c mouse assessed as reduction in tumor volume at 5 to 10 mg/kg, ip measured every 2 days; type: functional, organism-based; conditions: dose 5-10 mg/kg
# HCT-116 [17] = assay: Effect on RB1 expression in human HCT-116 cells at 2.5 to 10 uM incubated for 48 hrs by Western blotting analysis; type: functional, cell-based; conditions: dose 2.5-10 µM
# HCT-116 [18] = assay: Induction of apoptosis in human HCT-116 cells assessed as early apoptotic cells at 2.5 uM incubated for 48 hrs by Annexin V-PE and propidium iodide staining based flow cytometry analysis (reference value: 0.4%); type: functional
# RKO [19] = assay: Induction of apoptosis in human RKO cells assessed as late apoptotic cells at 2.5 uM incubated for 48 hrs by Annexin V-PE and propidium iodide staining based flow cytometry analysis (reference value: 0.3%); type: functional
# RKO [20] = assay: Induction of apoptosis in human RKO cells assessed as viable cells at 10 uM incubated for 48 hrs by Annexin V-PE and propidium iodide staining based flow cytometry analysis (reference value: 99.2%); type: functional; conditions: read-out: Activity
# [21] = biological target: Glycogen synthase kinase-3 beta (Homo sapiens) (UniProt P49841); assay: Inhibition of GSK-3beta phosphorylation in human HCT-116 cells by incubated for 48 hrs Western blotting analysis; type: cell-based; conditions: dose 2.5-10 µM
# Chain of Glycogen synthase kinase-3 beta (Homo sapiens) (P49841 whole entry, looked up): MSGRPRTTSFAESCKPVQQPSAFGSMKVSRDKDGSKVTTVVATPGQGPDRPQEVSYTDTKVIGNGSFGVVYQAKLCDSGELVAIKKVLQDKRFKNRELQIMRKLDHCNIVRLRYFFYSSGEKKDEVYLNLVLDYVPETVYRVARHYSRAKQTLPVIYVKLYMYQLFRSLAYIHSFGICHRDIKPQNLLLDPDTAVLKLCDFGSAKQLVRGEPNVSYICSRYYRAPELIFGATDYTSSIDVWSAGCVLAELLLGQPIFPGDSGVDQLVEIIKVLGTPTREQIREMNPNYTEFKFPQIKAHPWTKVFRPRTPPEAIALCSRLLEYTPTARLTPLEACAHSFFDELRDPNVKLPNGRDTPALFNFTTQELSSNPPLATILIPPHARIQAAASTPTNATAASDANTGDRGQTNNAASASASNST
# RKO [22] = assay: Induction of cell cycle arrest in human RKO cells assessed as upregulation of p53 expression at 2.5 to 10 uM incubated for 48 hrs by Western blotting analysis; type: functional, cell-based; conditions: dose 2.5-10 µM
# RKO [23] = assay: Induction of apoptosis in human RKO cells assessed as necrotic cells at 10 uM incubated for 48 hrs by Annexin V-PE and propidium iodide staining based flow cytometry analysis (reference value: 0.3%); type: functional
# RKO [24] = assay: Effect on RB1 expression in human RKO cells at 2.5 to 10 uM incubated for 48 hrs by Western blotting analysis; type: functional, cell-based; conditions: dose 2.5-10 µM
# RKO [25] = assay: Induction of cell cycle arrest in human RKO cells assessed as upregulation of p21 expression at 2.5 to 10 uM incubated for 48 hrs by Western blotting analysis; type: functional, cell-based; conditions: dose 2.5-10 µM
# HCT-116 [26] = assay: Antitumor activity against human HCT-116 cells xenografted in BALB/c mouse assessed as reduction in Ki67 protein expression at 5 to 10 mg/kg, ip measured every 2 days by immunohistochemistry analysis; type: functional, organism-based; conditions: dose 5-10 mg/kg
# [27] = Acute toxicity in BALB/c mouse assessed as body weight loss at 50 to 100 mg/kg, ip measured every 2 days; type: organism-based; conditions: in vivo, 48 h, dose 50-100 mg/kg
# RKO [28] = assay: Induction of apoptosis in human RKO cells assessed as early apoptotic cells at 10 uM incubated for 48 hrs by Annexin V-PE and propidium iodide staining based flow cytometry analysis (reference value: 0.2%); type: functional
# [29] = Acute toxicity in BALB/c mouse assessed as liver lesion at 50 to 100 mg/kg, ip measured every 2 days by H and E staining based assay; type: organism-based; conditions: in vivo, 48 h, dose 50-100 mg/kg
# RKO [30] = assay: Cytotoxicity against human RKO cells incubated for 72 hrs by MTS assay; type: functional, cell-based
# HCT-116 [31] = assay: Inhibition of colony formation in human HCT-116 cells at 4 uM incubated for 10 days with every 3 days of media replacement by crystal violet staining based assay; type: functional; conditions: HCT-116, 240 h, time 10 day
# HCT-116 [32] = assay: Antitumor activity against human HCT-116 cells xenografted in BALB/c mouse assessed as tumor growth suppression at 5 to 10 mg/kg, ip measured every 2 days by H and E staining based assay; type: functional, organism-based; conditions: dose 5-10 mg/kg
# HCT-116 [33] = assay: Induction of cell cycle arrest in human HCT-116 cells assessed as upregulation of p53 expression at 2.5 to 10 uM incubated for 48 hrs by Western blotting analysis; type: functional, cell-based; conditions: dose 2.5-10 µM
# HCT-116 [34] = assay: Induction of cell cycle arrest in human HCT-116 cells assessed as accumulation of cells at G0/G1 phase incubated for 48 hrs by propidium iodide staining based flow cytometry analysis; type: functional; conditions: dose 2.5-10 µM
# HCT-116 [35] = assay: Induction of apoptosis in human HCT-116 cells assessed as upregulation of cleaved caspase-3 expression incubated for 48 hrs by Western blotting analysis; type: functional, cell-based; conditions: dose 2.5-10 µM
# RKO [36] = assay: Effect on cyclin D1 expression in human RKO cells at 2.5 to 10 uM incubated for 48 hrs by Western blotting analysis; type: functional, cell-based; conditions: dose 2.5-10 µM
# RKO [37] = assay: Induction of cell cycle arrest in human RKO cells assessed as downregulation of p-Rb expression at 2.5 to 10 uM incubated for 48 hrs by Western blotting analysis; type: functional, cell-based; conditions: dose 2.5-10 µM
compound,measurement,setting,value
C=C(C)C(=O)N1CCc2cccc(C3=CC(=O)N(C)C3=O)c21,viability at 2.5 µM,HCT-116 [1],96.5%
same,Activity,HCT-116 [2],1.8%
same,Activity,[3],Non-Toxic
same,Activity,RKO [4],1.1%
same,Activity,[5],Non-Toxic
same,inhibition,HCT-116 [6],Active
same,Activity,RKO [7],Active
same,Activity,HCT-116 [8],inactive
same,Activity,[9],Non-Toxic
same,Activity,RKO [10],0.5%
same,IC50 at 72 h,[11],63.7 µM
same,Activity,HCT-116 [12],Active
same,Activity,RKO [13],0%
same,Activity,RKO [14],0.1%
same,inhibition at 4 µM,RKO [15],100%
same,Activity,HCT-116 [16],Active
same,Activity,HCT-116 [17],inactive
same,Activity,HCT-116 [18],0.7%
same,Activity,RKO [19],0.4%
same,viability at 10 µM,RKO [20],93.4%
same,inhibition,[21],Dose-Dependent Effect
same,Activity,RKO [22],Active
same,Activity,RKO [23],0.7%
same,Activity,RKO [24],inactive
same,Activity,RKO [25],Active
same,Activity,HCT-116 [26],Active
same,Activity,[27],Non-Toxic
same,Activity,RKO [28],4.9%
same,Activity,[29],Non-Toxic
same,IC50,RKO [30],1.1 µM
same,inhibition at 4 µM,HCT-116 [31],100%
same,Activity,HCT-116 [32],Active
same,Activity,HCT-116 [33],Active
same,Activity,HCT-116 [34],Dose-Dependent Effect
same,Activity,HCT-116 [35],Dose-Dependent Effect
same,Activity,RKO [36],inactive
same,Activity,RKO [37],Active

# — ChEMBL document CHEMBL5550173, “Design, synthesis and biological evaluation of indoline-maleimide conjugates as potential antitumor agents for the treatment of colorectal cancer” (Bioorg Med Chem, 2024)
